Source: patent US7981890B2, “Phthalazinone derivatives” (AstraZeneca AB, priority 2007, dated 2011)
Values after ≈ are worked out from the molar mass of the structure shown.

Tests used:
[1] = tested on: HeLa cells; assay: Potentiation Factor (PF50), MMS growth inhibition, SRB assay; type: cell-based; conditions: with MMS, ratio of IC50 control / IC50 with PARP inhibitor; for mean PF50 at 30 nM: compound at 30 nM; for mean PF50 at 200 nM: compound at 200 nM
Description: The Potentiation Factor (PF50) for compounds is calculated as a ratio of the IC50 of control cell growth divided by the IC50 of cell growth+PARP inhibitor. Growth inhibition curves for both control and compound treated cells are in the presence of the alkylating agent methyl methanesulfonate (MMS). […] The concentrations of MMS were over a range from 0 to 10 μg/ml.
Cell growth was assessed using the sulforhodamine B (SRB) assay (Skehan, P., et al., (1990) New calorimetric cytotoxicity assay for anticancer-drug screening. J. Natl. Cancer Inst. 82, 1107-1112). 2,000 HeLa cells were seeded into each well of a flat-bottomed 96-well microtiter plate in a volume of 100 μl and incubated for 6 hours at 37° C. […] Cells were allowed to grow for a further 1 hour before the addition of MMS at a range of concentrations (typically 0, 1, 2, 3, 5, 7 and 10 μg/ml) to either untreated cells or PARP inhibitor treated cells. Cells treated with PARP inhibitor alone were used to assess the growth inhibition by the PARP inhibitor.
Cells were left for a further 16 hours before replacing the media and allowing the cells to grow for a further 72 hours at 37° C. The media was then removed and the cells fixed with 100 μl of ice cold 10% (w/v) trichloroacetic acid. The plates were incubated at 4° C. for 20 minutes and then washed four times with water. Each well of cells was then stained with 100 μl of 0.4% (w/v) SRB in 1% acetic acid for 20 minutes before washing four times with 1% acetic acid. Plates were then dried for 2 hours at room temperature. The dye from the stained cells was solubilized by the addition of 100 μl of 10 mM Tris Base into each well. Plates were gently shaken and left at room temperature for 30 minutes before measuring the optical density at 564 nm on a Microquant microtiter plate reader.

[2] = Solubility assay; type: physicochemical; conditions: thermodynamic from solid; water; 20 hours at room temperature
Description: A typical assay that may be used to assess the solubility of the compounds of the present invention is as follows. The solubility of the compound is assessed in water and phosphate-buffered saline (pbs) at pH 7.4. The samples are all allowed to equilibrate in the solvent (with shaking) for 20 hours at room temperature. After that period, the samples will be visually examined to determine the presence/absence of un-dissolved solid. The samples will be centrifuged or filtered as necessary to remove insoluble material, and the solution analysed to determine solubility of the DS, diluting both aqueous and DMSO samples to a similar concentration with DMSO. The area of the peak obtained by HPLC (using the diode array detector) from the sample will be compared to the area of the peak from the DMSO solution (diluted to the same concentration as the sample) and quantified taking into account the weight of sample taken for initial dissolution. The assumption is made that the sample will be completely soluble in DMSO at the levels used for testing.
Comparing the ratio of the peak areas, and knowing the concentration of the original samples, the solubility may be calculated.
About 1 mg of the sample is weighed accurately into a 4-ml glass vial and exactly 1.0 ml of water, aqueous buffer or DMSO, is added to it by pipette. Each vial is ultrasonicated for up to 2 minutes to assist solublisation of the solid. The samples are retained at room temperature for 20 hours, shaking on an orbital shaker. The vials are examined after this period to determine the presence/absence of un-dissolved solid. The samples should be centrifuged, or filtered through a 0.45 μm filter, to remove insoluble material if necessary, and the filtrate analysed to determine concentration of the compound in solution, after diluting all samples as appropriate with DMSO. 20 μl is injected onto the HPLC using the method shown below, injecting all samples in duplicate. The maximum solubility that can be determined using this method is nominally 1.0 mg/ml, the weight taken divided by the volume of solvent used. […]

[3] = tested on: BRCA2 deficient (VC8) cells; assay: VC8 assay, growth inhibition (SRB); type: cell-based, hamster; conditions: V-C8
Description: (§1) In order to assess the growth inhibitory action of compounds on BRCA2 deficient (VC8−hamster line) and BRAC2 complemented (VC8+BAC) cells the following assay was used to determine GI50 values.
500 VC8 cells or 200 VC8+BAC cells were seeded into each well of a flat-bottomed 96-well microtiter plate in a volume of 90 μl and incubated for 4-6 hours at 37° C. All compounds were diluted in media (Dulbecco's Modified Eagle's Medium (DMEM), 10% Fetal Bovine Serum, Penicillin/Sretptomycin/Glutamine) and added to the cells at final concentrations of between 0 and 300 nM.
Cells were left for a further 48 hours before replacing the media with fresh media (no compound) and allowing the cells to grow for a total of 120 hours at 37° C. The medium was then removed and the cells fixed with 50 μl of ice cold 10% (w/v) tricholoracetic acid. The plates were incubated at 4° C. for 30 minutes and then washed three times with water. Each well of cells was then stained with 50 μl of 0.4% (w/v) sulforhodamine B (SRB) in 1% acetic acid for 15 minutes before washing three times with 1% acetic acid. Plates were then dried for 2 hours at room temperature. The dye from the stained cells was solubilised by the addition of 100 μl of 10 mM Tris Base into each well. Plates were then shaken and the optical density at 564 nm was measured on a Microquant microtiter plate reader. […]

[4] = tested on: BRAC2 complemented (VC8+BAC) cells; assay: VC8 assay, growth inhibition (SRB), complemented cells; type: cell-based, hamster; conditions: BRCA2 complemented VC8+BAC cells
Description: as §1
500 VC8 cells or 200 VC8+BAC cells were seeded into each well of a flat-bottomed 96-well microtiter plate in a volume of 90 μl and incubated for 4-6 hours at 37° C. […]
Cells were left for a further 48 hours before replacing the media with fresh media (no compound) and allowing the cells to grow for a total of 120 hours at 37° C. The medium was then removed and the cells fixed with 50 μl of ice cold 10% (w/v) tricholoracetic acid. The plates were incubated at 4° C. for 30 minutes and then washed three times with water. Each well of cells was then stained with 50 μl of 0.4% (w/v) sulforhodamine B (SRB) in 1% acetic acid for 15 minutes before washing three times with 1% acetic acid. Plates were then dried for 2 hours at room temperature. The dye from the stained cells was solubilised by the addition of 100 μl of 10 mM Tris Base into each well. Plates were then shaken and the optical density at 564 nm was measured on a Microquant microtiter plate reader.
The GI50 is calculated as the μM concentration of compound required to inhibit 50% of cell growth.

SMILES | mean PF50 at 30 nM [1] | mean PF50 at 200 nM [1] | solubility at 20 h [2] [µg/mL] | GI50 [3] [nM] | GI50 [4] [µM]
C[C@H]1NC(=O)N(c2cc(Cc3n[nH]c(=O)c4c3CCCC4)ccc2F)C1=O (single isomer, unassigned) [Compound 13b] | 9 | – | – | – | –
CC1(C)NC(=O)N(c2cccc(Cc3n[nH]c(=O)c4c3CCCC4)c2)C1=O [Compound 15, 5,5-dimethyl-3-[3-[(4-oxo-5,6,7,8-tetrahydro-3H-phthalazin-1-yl)methyl]phenyl]imidazolidine-2,4-dione] | – | 2 | 105 (≈ 287 µM) | – | –
C[C@@H]1NC(=O)N(c2cc(Cc3n[nH]c(=O)c4c3CCCC4)ccc2F)C1=O (single isomer, unassigned) [Compound 13a] | 25 | – | – | – | –
CC1NC(=O)N(c2cc(Cc3n[nH]c(=O)c4c3CCCC4)ccc2F)C1=O (stereo not shown) [Compound 13, 3-[2-Fluoro-5-(4-oxo-3,4,5,6,7,8-hexahydro-phthalazin-1-ylmethyl)-phenyl]-5-methylimidazolidine-2,4-dione] | – | 57 | 900 (≈ 2430 µM) | 10.5 | 29
CC1NC(=O)N(c2cccc(Cc3n[nH]c(=O)c4c3CCCC4)c2)C1=O (stereo not shown) [Compound 6, 5-Methyl-3-[3-(4-oxo-3,4,5,6,7,8-hexahydro-phthalazin-1-ylmethyl)-phenyl]-imidazolidine-2,4-dione] | – | 20 | 500 (≈ 1420 µM) | – | –
